Tested on: 521955-158-R2-J5-PDC complex spheroid viability
Assay: Anticancer human tumor 521955-158-R2-J5-PDC patient-derived pancreatic carcinoma cell line growth inhibition
Details: for IC50: curve of first compound; for viability, T/C: stronger effect = lower value
Description: Multicellular complex tumor spheroid response to LSD1 Inhibitor Iadademstat in combination with a variety of drugs and investigational agents in selected tumor cell lines
The current study was undertaken to assess response to LSD1 inhibitors in combination with standard-of-care drugs and investigational agents in solid tumor complex spheroid models as well as in the K-562 leukemia. Complex spheroids include a stromal component modeled by human endothelial cells (HUVEC) and fibroblasts modeled by human mesenchymal stem cells (MSCs). The concentration ranges selected for each drug and investigational agent were based upon clinically achievable concentrations if the clinical Cmax of the agent was known.
Compounds. The drugs and investigational agents used in this study are listed on Table 1. All of the agents used, including staurosporine (NSC755774) and gemcitabine (NSC613327), were obtained from the Developmental Therapeutics Program, NCI. FDA-approved anticancer drugs are available from the NCI at http://dtp.nci.nih.gov/branches/dscb/oncology_drugset_explanation.html. Drugs and investigational agents were >95% pure by proton nuclear magnetic resonance (NMR) and liquid chromatography/mass spectrometry (LC/MS). Stock solutions were prepared at 400x in DMSO, stored at -70 degrees C, and diluted in fresh medium prior to their use. The final concentration of DMSO in cell culture wells never exceeded 0.25% (v/v). The FDA-approved anticancer drug set is available from the Developmental Therapeutics Program at https://dtp.cancer.gov/organization/dscb/obtaining/available_plates.htm. All drugs and investigational agents were tested over a range starting from a high concentration at or near the clinical Cmax and decreasing in half-log increments. If the clinical Cmax for an agent had not been determined, the highest concentration tested was 10 microM.
Cell Lines. The patient-derived cancer cell (PDC) lines: 292921-168-R-J2-PDC, K24384-001-R-PDC, and 521955-158-R2-J5-PDC pancreatic carcinomas, 556581-035-R-J1 ovarian carcinoma, 324938-238-R-J1-PDC, 855422-203-R-J1-PDC and 883617-216-R-J1-PDC urothelial bladder carcinomas, 743489-274-T-PDC renal cell carcinoma, 138582-R-J1 Merkel cell tumor, K60290-347-R-J1 and K57222-313-R-J1-PDC glioblastomas, 653999-131-R-J2-PDC, LG0703-F948-PDC, and 349418-098-R-PDC non-small cell lung carcinomas, 885512-296-R-J2-PDC, 171881-019-R-J1-PDC breast carcinomas and 186277-243-T-J2-PDC and 233499-124-R-J2-PDC colon carcinomas were obtained from the NCI Patient-Derived Models Repository (PDMR, https://pdmr.cancer.gov). The established cell lines NCI/ADR-RES (RRID:CVCL_14520 and OVCAR-5 (RRID:CVCL_1628) ovarian carcinomas, 786-O (RRID:CVCL_1051) and A498 (RRID:CVCL_A498) renal cell carcinoma, NCI-H211 (ATCC, cat. CRL-5824; RRID:CVCL_1529), NCI-H196 (ATCC, cat. CRL-5823, RRID:CVCL_1509), SW 1271 (ATCC, cat. CRL-2177, RRID:CVCL_1716) and NCI-H1876 (ATCC, cat. CRL-5902, RRID:CVCL_1503) small cell lung carcinomas, MDA-MB-231 (RRID:CVCL_0062) and MDA-MB-468 (RRID:CVCL_0419)breast carcinomas (10-12). Pooled donor human umbilical vein endothelial cells (HUVEC, Lonza, cat. CC-2519) and human mesenchymal stem cells (hMSC, Lonza, cat. PT-2501) were purchased from Lonza (Walkersville, MD).
Cell Culture. All cells were maintained in an incubator at 37 degrees C and 5% CO2 with 95% humidity. The PDC lines were cultured according to standard operating procedures established by the NCI PDMR (https://pdmr.cancer.gov). Briefly all PDCs were thawed and cultured in Matrigel-coated flasks prepared with a working solution of 1X Ham's F-12 nutrient mix, without supplementation (Invitrogen, Waltham, MA, cat. 11765054), 100 U/mL penicillin-streptomycin (Invitrogen, cat. 15140122), and 2.5% Matrigel (Corning Inc., Corning, NY, cat. 354248) for the first three passages. […]

[1] = second compound 0.1 µM, first compound 0.00949 µM
[2] = second compound 0.1 µM, first compound 0.03 µM
[3] = second compound 0.1 µM, first compound 0.0949 µM
[4] = second compound 0.1 µM, first compound 0.3 µM
[5] = second compound 0.316 µM, first compound 0.00949 µM
[6] = second compound 0.316 µM, first compound 0.03 µM
[7] = second compound 0.316 µM, first compound 0.0949 µM
[8] = second compound 0.316 µM, first compound 0.3 µM
[9] = second compound 1 µM, first compound 0.00949 µM
[10] = second compound 1 µM, first compound 0.03 µM
[11] = second compound 1 µM, first compound 0.0949 µM
[12] = second compound 1 µM, first compound 0.3 µM
[13] = second compound 3.16 µM, first compound 0.00949 µM
[14] = second compound 3.16 µM, first compound 0.03 µM
[15] = second compound 3.16 µM, first compound 0.0949 µM
[16] = second compound 3.16 µM, first compound 0.3 µM
[17] = second compound 10 µM, first compound 0.00949 µM
[18] = second compound 10 µM, first compound 0.03 µM
[19] = second compound 10 µM, first compound 0.0949 µM
[20] = second compound 10 µM, first compound 0.3 µM
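Further: spheroids exposed to agents for seven days.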
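Wherever viability, T/C is given: percent of DMSO vehicle control luminescence viability.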

## Nc1ncn(C2CC(O)C(CO)S2)c(=O)n1 (stereo not given) + NC1CCC(NC2CC2c2ccccc2)CC1
Second compound 0.1 µM
  IC50: > 300 nM
Second compound 0.316 µM
  IC50: > 300 nM
Second compound 1 µM
  IC50: > 300 nM
Second compound 3.16 µM
  IC50: > 300 nM
Second compound 10 µM
  IC50: > 300 nM
Second compound 0.1 µM, first compound 0.000949 µM
  viability, T/C: 92.9%
Second compound 0.1 µM, first compound 0.003 µM
  viability, T/C: 91%
[1]
  viability, T/C: 88.3%
[2]
  viability, T/C: 79.8%
[3]
  viability, T/C: 75.6%
[4]
  viability, T/C: 57.3%
Second compound 0.316 µM, first compound 0.000949 µM
  viability, T/C: 95.9%
Second compound 0.316 µM, first compound 0.003 µM
  viability, T/C: 92.2%
[5]
  viability, T/C: 88.9%
[6]
  viability, T/C: 84.6%
[7]
  viability, T/C: 70.3%
[8]
  viability, T/C: 51.5%
Second compound 1 µM, first compound 0.000949 µM
  viability, T/C: 92.5%
Second compound 1 µM, first compound 0.003 µM
  viability, T/C: 87%
[9]
  viability, T/C: 93.7%
[10]
  viability, T/C: 82.8%
[11]
  viability, T/C: 77.8%
[12]
  viability, T/C: 56.5%
Second compound 3.16 µM, first compound 0.000949 µM
  viability, T/C: 103%
Second compound 3.16 µM, first compound 0.003 µM
  viability, T/C: 110%
[13]
  viability, T/C: 91.7%
[14]
  viability, T/C: 88.1%
[15]
  viability, T/C: 76.6%
[16]
  viability, T/C: 52.7%
Second compound 10 µM, first compound 0.000949 µM
  viability, T/C: 93.6%
Second compound 10 µM, first compound 0.003 µM
  viability, T/C: 94.9%
[17]
  viability, T/C: 98%
[18]
  viability, T/C: 82.8%
[19]
  viability, T/C: 77.4%
[20]
  viability, T/C: 54.9%

## NS(=O)(=O)OCC1CC(n2ccc3c(NC4CCc5ccccc54)ncnc32)CC1O (stereo not given) + NC1CCC(NC2CC2c2ccccc2)CC1
Second compound 0.1 µM
  IC50: 28.1 nM
Second compound 0.316 µM
  IC50: 31.8 nM
Second compound 1 µM
  IC50: 26.3 nM
Second compound 3.16 µM
  IC50: 25.8 nM
Second compound 10 µM
  IC50: 25.4 nM
[1]
  viability, T/C: 77.7%
[2]
  viability, T/C: 49%
[3]
  viability, T/C: 26.5%
[4]
  viability, T/C: 16.8%
Second compound 0.1 µM, first compound 0.949 µM
  viability, T/C: 13.8%
Second compound 0.1 µM, first compound 3 µM
  viability, T/C: 7.17%
[5]
  viability, T/C: 69.6%
[6]
  viability, T/C: 51.4%
[7]
  viability, T/C: 28.9%
[8]
  viability, T/C: 15.1%
Second compound 0.316 µM, first compound 0.949 µM
  viability, T/C: 10.3%
Second compound 0.316 µM, first compound 3 µM
  viability, T/C: 6.4%
[9]
  viability, T/C: 71.8%
[10]
  viability, T/C: 47.3%
[11]
  viability, T/C: 25.5%
[12]
  viability, T/C: 13.7%
Second compound 1 µM, first compound 0.949 µM
  viability, T/C: 11.1%
Second compound 1 µM, first compound 3 µM
  viability, T/C: 7.37%
[13]
  viability, T/C: 70.7%
[14]
  viability, T/C: 47.5%
[15]
  viability, T/C: 24.4%
[16]
  viability, T/C: 15.6%
Second compound 3.16 µM, first compound 0.949 µM
  viability, T/C: 12.2%
Second compound 3.16 µM, first compound 3 µM
  viability, T/C: 7.55%
[17]
  viability, T/C: 74.9%
[18]
  viability, T/C: 46.5%
[19]
  viability, T/C: 23.6%
[20]
  viability, T/C: 15.3%
Second compound 10 µM, first compound 0.949 µM
  viability, T/C: 9.78%
Second compound 10 µM, first compound 3 µM
  viability, T/C: 5.36%

## CC1COCCN1c1cc(-c2ccnn2C)c2ccnc(-c3ccn[nH]3)c2n1 (stereo not given) + NC1CCC(NC2CC2c2ccccc2)CC1
Second compound 0.1 µM
  IC50: < 3.16 nM
Second compound 0.316 µM
  IC50: < 3.16 nM
Second compound 1 µM
  IC50: < 3.16 nM
Second compound 3.16 µM
  IC50: < 3.16 nM
Second compound 10 µM
  IC50: < 3.16 nM
Second compound 0.1 µM, first compound 0.00316 µM
  viability, T/C: 13.4%
Second compound 0.1 µM, first compound 0.01 µM
  viability, T/C: 12.4%
Second compound 0.1 µM, first compound 0.0316 µM
  viability, T/C: 15.4%
Second compound 0.1 µM, first compound 0.1 µM
  viability, T/C: 22.6%
Second compound 0.1 µM, first compound 0.316 µM
  viability, T/C: 21.1%
Second compound 0.1 µM, first compound 1 µM
  viability, T/C: 8.33%
Second compound 0.316 µM, first compound 0.00316 µM
  viability, T/C: 14.7%
Second compound 0.316 µM, first compound 0.01 µM
  viability, T/C: 18.1%
Second compound 0.316 µM, first compound 0.0316 µM
  viability, T/C: 16.6%
Second compound 0.316 µM, first compound 0.1 µM
  viability, T/C: 26.2%
Second compound 0.316 µM, first compound 0.316 µM
  viability, T/C: 26.8%
Second compound 0.316 µM, first compound 1 µM
  viability, T/C: 10.4%
Second compound 1 µM, first compound 0.00316 µM
  viability, T/C: 14.7%
Second compound 1 µM, first compound 0.01 µM
  viability, T/C: 14.4%
Second compound 1 µM, first compound 0.0316 µM
  viability, T/C: 16.7%
Second compound 1 µM, first compound 0.1 µM
  viability, T/C: 21.9%
Second compound 1 µM, first compound 0.316 µM
  viability, T/C: 27.5%
Second compound 1 µM, first compound 1 µM
  viability, T/C: 8.96%
Second compound 3.16 µM, first compound 0.00316 µM
  viability, T/C: 17.2%
Second compound 3.16 µM, first compound 0.01 µM
  viability, T/C: 15.2%
Second compound 3.16 µM, first compound 0.0316 µM
  viability, T/C: 17.5%
Second compound 3.16 µM, first compound 0.1 µM
  viability, T/C: 23.5%
Second compound 3.16 µM, first compound 0.316 µM
  viability, T/C: 28.7%
Second compound 3.16 µM, first compound 1 µM
  viability, T/C: 8.47%
Second compound 10 µM, first compound 0.00316 µM
  viability, T/C: 16.8%
Second compound 10 µM, first compound 0.01 µM
  viability, T/C: 16.9%
Second compound 10 µM, first compound 0.0316 µM
  viability, T/C: 16.7%
Second compound 10 µM, first compound 0.1 µM
  viability, T/C: 24.8%
Second compound 10 µM, first compound 0.316 µM
  viability, T/C: 29.1%
Second compound 10 µM, first compound 1 µM
  viability, T/C: 7.2%

Source: PubChem BioAssay AID1918937 (Molecular Pharmacology Branch, DTP, NCI, 2023)
